Experimental data reported in ChEMBL document CHEMBL1201862, “PubChem BioAssay data set” (2004).
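Briefly, cells in 96-well plates were exposed to five compound concentrations for 48 h, and endpoints were estimated by linear interpolation. The concentration for 50% growth inhibition is given as GI50.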 Active and inactive are the calls of the source. Rule as the data show it: active = GI50 up to about 1.1 µM and inactive = higher.

Experiments:
Test in all cases: growth of human tumour cells (NCI), 48 h
Hs-578T = system: Hs-578T
UO-31 = system: UO-31
K562 = system: K562
CAKI-1 = system: CAKI-1
MDA-MB-231 = system: MDA-MB-231
A549 = system: A549
SK-MEL-5 = system: SK-MEL-5
SF-295 = system: SF-295
HCC 2998 = system: HCC 2998
SW-620 = system: SW-620
UACC-257 = system: UACC-257
OVCAR-4 = system: OVCAR-4
SN12C = system: SN12C
SNB-75 = system: SNB-75
PC-3 = system: PC-3
MOLT-4 = system: MOLT-4
NCI-H522 = system: NCI-H522
RPMI-8226 = system: RPMI-8226
SNB-78 = system: SNB-78
KM-20L2 = system: KM-20L2

| SMILES | GI50 (Hs-578T) | GI50 (UO-31) | GI50 (K562) | GI50 (CAKI-1) | GI50 (MDA-MB-231) | GI50 (A549) | GI50 (SK-MEL-5) | GI50 (SF-295) | GI50 (HCC 2998) | GI50 (SW-620) | GI50 (UACC-257) | GI50 (OVCAR-4) | GI50 (SN12C) | GI50 (SNB-75) | GI50 (PC-3) | GI50 (MOLT-4) | GI50 (NCI-H522) | GI50 (RPMI-8226) | GI50 (SNB-78) | GI50 (KM-20L2) |
| --- | --- | --- | --- | --- | --- | --- | --- | --- | --- | --- | --- | --- | --- | --- | --- | --- | --- | --- | --- | --- |
| CCCCCCCCCCCCCC(=O)CBr | 5.64 µM (inactive) | 8.93 µM (inactive) | 3.53 µM (inactive) | 1.1 µM (active) | 16.3 µM (inactive) | 22.5 µM (inactive) | 12.1 µM (inactive) | 15.4 µM (inactive) | 15.8 µM (inactive) | 12 µM (inactive) | 13.2 µM (inactive) | 14.2 µM (inactive) | 16.6 µM (inactive) | 6.03 µM (inactive) | 3.62 µM (inactive) | 0.764 µM (active) | 1.84 µM (inactive) | 1.47 µM (inactive) | 14.2 µM (inactive) | 15.6 µM (inactive) |
| Cc1c(-c2cc(-c3ccccc3)n[nH]c2=O)c2ccccc2n1C |  | > 100 µM (inactive) | > 100 µM (inactive) | > 100 µM (inactive) |  | > 100 µM (inactive) | > 100 µM (inactive) | > 100 µM (inactive) | > 100 µM (inactive) | > 100 µM (inactive) | > 100 µM (inactive) | > 100 µM (inactive) | > 100 µM (inactive) | > 100 µM (inactive) |  | > 100 µM (inactive) | > 100 µM (inactive) | 76.2 µM (inactive) | > 100 µM (inactive) | > 100 µM (inactive) |
| CCOC(=O)C1=C(C)Nc2ccccc2S1 |  | > 100 µM (inactive) | > 100 µM (inactive) | > 100 µM (inactive) |  | > 100 µM (inactive) | > 100 µM (inactive) | > 100 µM (inactive) | > 100 µM (inactive) | > 100 µM (inactive) | > 100 µM (inactive) | > 100 µM (inactive) | > 100 µM (inactive) | > 100 µM (inactive) |  | 46.1 µM (inactive) | > 100 µM (inactive) | 48.3 µM (inactive) | > 100 µM (inactive) | > 100 µM (inactive) |
| C/C(CN1C(=O)c2ccccc2C1=O)=N\NS(=O)(=O)c1cccc(C(=O)O)c1 |  | > 100 µM (inactive) | > 100 µM (inactive) | > 100 µM (inactive) |  | > 100 µM (inactive) | > 100 µM (inactive) | > 100 µM (inactive) | > 100 µM (inactive) | > 100 µM (inactive) | > 100 µM (inactive) | > 100 µM (inactive) | > 100 µM (inactive) | > 100 µM (inactive) |  | > 100 µM (inactive) | > 100 µM (inactive) | > 100 µM (inactive) | > 100 µM (inactive) | > 100 µM (inactive) |
| O=C1C[C@@H]2[C@@H](C=CC23CC3)N1O |  | > 100 µM (inactive) | > 100 µM (inactive) | > 100 µM (inactive) |  | > 100 µM (inactive) | > 100 µM (inactive) | > 100 µM (inactive) | > 100 µM (inactive) | > 100 µM (inactive) | > 100 µM (inactive) | > 100 µM (inactive) | > 100 µM (inactive) | > 100 µM (inactive) |  | > 100 µM (inactive) | > 100 µM (inactive) | > 100 µM (inactive) | > 100 µM (inactive) | > 100 µM (inactive) |
| CO[C@@]1(c2ccccc2)O[C@H]2OCCC2[C@H]1c1ccc(Cl)cc1 (some centres undefined) |  | 25.4 µM (inactive) | 29.9 µM (inactive) | 28.8 µM (inactive) |  | 32.7 µM (inactive) | 17 µM (inactive) | 21.3 µM (inactive) | 35.3 µM (inactive) | 32.7 µM (inactive) | 22 µM (inactive) | 26.6 µM (inactive) | 51.5 µM (inactive) | 28.8 µM (inactive) |  | 17.9 µM (inactive) | 16.4 µM (inactive) | 34 µM (inactive) | 45.1 µM (inactive) | 32.1 µM (inactive) |
| C/C(=C\COc1ccc2ccc(=O)oc2c1)C1=CC(=O)C(C)(C)O1 [GEIPARVARIN] | 2.51 µM (inactive) | 6.11 µM (inactive) | 4.39 µM (inactive) | 4.83 µM (inactive) | 5.18 µM (inactive) | 7.67 µM (inactive) | 3.45 µM (inactive) | 2.43 µM (inactive) | 3.94 µM (inactive) | 3.43 µM (inactive) | 4.69 µM (inactive) | 3.08 µM (inactive) | 3.94 µM (inactive) | 5.01 µM (inactive) | 6.58 µM (inactive) | 4.14 µM (inactive) |  | 2.04 µM (inactive) | 4.15 µM (inactive) | 3.39 µM (inactive) |
